Test results from paper PMC11240139, “Exploring the antitumor potential of novel quinoline derivatives via tubulin polymerization inhibition in breast cancer; design, synthesis and molecular docking” (RSC Advances, 2024).

Assays:
[1] = system: NCI-H226 (non-small cell lung cancer); experiment: NCI-60 SRB cytotoxicity screen; assay type: cell-based; conditions: Homo sapiens; NCI-H226, single dose 10 μM; read-out: growth inhibition (GI%)
[2] = system: EKVX (non-small cell lung cancer); experiment: NCI-60 SRB cytotoxicity screen; assay type: cell-based; conditions: Homo sapiens, single dose 10 μM, read-out: growth inhibition (GI%)
SK-MEL-28 (melanoma) = experiment: NCI-60 SRB cytotoxicity screen; assay type: cell-based; conditions: Homo sapiens; SK-MEL-28, single dose 10 μM; read-out: growth inhibition (GI%)
MOLT-4 (leukemia) = experiment: NCI-60 SRB cytotoxicity screen; assay type: cell-based; conditions: Homo sapiens; MOLT-4, single dose 10 μM; read-out: growth inhibition (GI%)
T-47D (breast cancer) = experiment: NCI-60 SRB cytotoxicity screen; assay type: cell-based; conditions: Homo sapiens, T47D, single dose 10 μM, read-out: growth inhibition (GI%)
BT-549 (breast cancer) = experiment: NCI-60 SRB cytotoxicity screen; assay type: cell-based; conditions: Homo sapiens; BT-549, single dose 10 μM; read-out: growth inhibition (GI%)
K-562 (leukemia) = experiment: NCI-60 SRB cytotoxicity screen; assay type: cell-based; conditions: Homo sapiens; K-652 [sic], single dose 10 μM; read-out: growth inhibition (GI%)
PC-3 (prostate cancer) = experiment: NCI-60 SRB cytotoxicity screen; assay type: cell-based; conditions: PC-3, single dose 10 μM; read-out: growth inhibition (GI%)
786-0 (renal cancer) = experiment: NCI-60 SRB cytotoxicity screen; assay type: cell-based; conditions: Homo sapiens; 786-0, single dose 10 μM; read-out: growth inhibition (GI%)
KM12 (colon cancer) = experiment: NCI-60 SRB cytotoxicity screen; assay type: cell-based; conditions: Homo sapiens; KM12, single dose 10 μM; read-out: growth inhibition (GI%)
SNB-75 (CNS cancer) = experiment: NCI-60 SRB cytotoxicity screen; assay type: cell-based; conditions: for inhibition at 10 µM: Homo sapiens, SNB-75, SNB-75, single dose 10 μM, read-out: growth inhibition (GI%)
RPMI-8226 (leukemia) = experiment: NCI-60 SRB cytotoxicity screen; assay type: cell-based; conditions: Homo sapiens; RPMI-8226, single dose 10 μM; read-out: growth inhibition (GI%)
MCF7 (breast cancer) = experiment: NCI-60 SRB cytotoxicity screen; assay type: cell-based; conditions: Homo sapiens; MCF7, single dose 10 μM; read-out: growth inhibition (GI%)
HL-60(TB) (leukemia) = experiment: NCI-60 SRB cytotoxicity screen; assay type: cell-based; conditions: Homo sapiens, single dose 10 μM, read-out: growth inhibition (GI%)
UACC-62 (melanoma) = experiment: NCI-60 SRB cytotoxicity screen; assay type: cell-based; conditions: Homo sapiens; UACC-62, single dose 10 μM; read-out: growth inhibition (GI%)
UACC-257 (melanoma) = experiment: NCI-60 SRB cytotoxicity screen; assay type: cell-based; conditions: Homo sapiens; UACC-257, single dose 10 μM; read-out: growth inhibition (GI%)
HS 578T (breast cancer) = experiment: NCI-60 SRB cytotoxicity screen; assay type: cell-based; conditions: Homo sapiens, single dose 10 μM, read-out: growth inhibition (GI%)
[3] = system: HOP-62 (non-small cell lung cancer); experiment: NCI-60 SRB cytotoxicity screen; assay type: cell-based; conditions: Homo sapiens; HOP-62, single dose 10 μM; read-out: growth inhibition (GI%)
SF-539 (CNS cancer) = experiment: NCI-60 SRB cytotoxicity screen; assay type: cell-based; conditions: Homo sapiens; SF-539, single dose 10 μM; read-out: growth inhibition (GI%)
IGROV1 (ovarian cancer) = experiment: NCI-60 SRB cytotoxicity screen; assay type: cell-based; conditions: Homo sapiens, IGROV-1; IGROV1, single dose 10 μM; read-out: growth inhibition (GI%)
[4] = system: A549/ATCC (non-small cell lung cancer); experiment: NCI-60 SRB cytotoxicity screen; assay type: cell-based; conditions: Homo sapiens, single dose 10 μM, read-out: growth inhibition (GI%)
A498 (renal cancer) = experiment: NCI-60 SRB cytotoxicity screen; assay type: cell-based; conditions: Homo sapiens; A498, single dose 10 μM; read-out: growth inhibition (GI%)
SF-295 (CNS cancer) = experiment: NCI-60 SRB cytotoxicity screen; assay type: cell-based; conditions: Homo sapiens; SF-295, single dose 10 μM; read-out: growth inhibition (GI%)
[5] = system: NCI-H460 (non-small cell lung cancer); experiment: NCI-60 SRB cytotoxicity screen; assay type: cell-based; conditions: Homo sapiens; NCI-H460, single dose 10 μM; read-out: growth inhibition (GI%)
MALME-3M (melanoma) = experiment: NCI-60 SRB cytotoxicity screen; assay type: cell-based; conditions: Homo sapiens, single dose 10 μM, read-out: growth inhibition (GI%)
OVCAR-8 (ovarian cancer) = experiment: NCI-60 SRB cytotoxicity screen; assay type: cell-based; conditions: Homo sapiens; OVCAR-8, single dose 10 μM; read-out: growth inhibition (GI%)
ACHN (renal cancer) = experiment: NCI-60 SRB cytotoxicity screen; assay type: cell-based; conditions: Homo sapiens, single dose 10 μM, read-out: growth inhibition (GI%)
SK-OV-3 (ovarian cancer) = experiment: NCI-60 SRB cytotoxicity screen; assay type: cell-based; conditions: Homo sapiens; SK-OV-3, single dose 10 μM; read-out: growth inhibition (GI%)
[6] = system: NCI-H23 (non-small cell lung cancer); experiment: NCI-60 SRB cytotoxicity screen; assay type: cell-based; conditions: Homo sapiens; NCI-H23, single dose 10 μM; read-out: growth inhibition (GI%)
CCRF-CEM (leukemia) = experiment: NCI-60 SRB cytotoxicity screen; assay type: cell-based; conditions: Homo sapiens, single dose 10 μM, read-out: growth inhibition (GI%)
UO-31 (renal cancer) = experiment: NCI-60 SRB cytotoxicity screen; assay type: cell-based; conditions: Homo sapiens; UO-31, single dose 10 μM; read-out: growth inhibition (GI%)
HCT-15 (colon cancer) = experiment: NCI-60 SRB cytotoxicity screen; assay type: cell-based; conditions: Homo sapiens; HCT-15, single dose 10 μM; read-out: growth inhibition (GI%)
[7] = system: MDA-MB-231/ATCC (breast cancer); experiment: NCI-60 SRB cytotoxicity screen; assay type: cell-based; conditions: Homo sapiens, MDA-MB-231, read-out: growth inhibition (GI%)
[8] = system: NCI-H522 (non-small cell lung cancer); experiment: NCI-60 SRB cytotoxicity screen; assay type: cell-based; conditions: Homo sapiens; NCI-H522, single dose 10 μM; read-out: growth inhibition (GI%)
[9] = system: NCI/ADR-RES (ovarian cancer); experiment: NCI-60 SRB cytotoxicity screen; assay type: cell-based; conditions: Homo sapiens, single dose 10 μM, read-out: growth inhibition (GI%)
HT29 (colon cancer) = experiment: NCI-60 SRB cytotoxicity screen; assay type: cell-based; conditions: Homo sapiens, HT-29; HT29, single dose 10 μM; read-out: growth inhibition (GI%)

Row | Structure (SMILES) | inhibition at 10 µM [1] | inhibition at 10 µM [2] | inhibition at 10 µM (SK-MEL-28 (melanoma)) | inhibition at 10 µM (MOLT-4 (leukemia)) | inhibition at 10 µM (T-47D (breast cancer)) | inhibition at 10 µM (BT-549 (breast cancer)) | inhibition at 10 µM (K-562 (leukemia)) | inhibition at 10 µM (PC-3 (prostate cancer)) | inhibition at 10 µM (786-0 (renal cancer)) | inhibition at 10 µM (KM12 (colon cancer)) | inhibition at 10 µM (SNB-75 (CNS cancer)) | inhibition at 10 µM (RPMI-8226 (leukemia)) | inhibition at 10 µM (MCF7 (breast cancer)) | inhibition at 10 µM (HL-60(TB) (leukemia)) | inhibition at 10 µM (UACC-62 (melanoma)) | inhibition at 10 µM (UACC-257 (melanoma)) | inhibition at 10 µM (HS 578T (breast cancer)) | inhibition at 10 µM [3] | inhibition at 10 µM (SF-539 (CNS cancer)) | inhibition at 10 µM (IGROV1 (ovarian cancer)) | further results
1 | CCc1cccc2cc(-c3cc(-c4cc(OC)c(OC)c(OC)c4)[nH]c(=S)c3C#N)c(Cl)nc12 [Compound 5c, 4-(2-Chloro-8-ethylquinolin-3-yl)-2-thioxo-6-(3,4,5-trimethoxyphenyl)-1,2-dihydropyridine-3-carbonitrile] | 63.3% | 34.9% | < 10% | 61.2% | 60.6% | 21.1% | 33.9% | 48.9% | 27.9% | 37.2% | < 10% | 63.1% | 46.5% | 51.8% | 33.5% | 20.1% | 32.7% | 10.6% | 29.7% | 33.4% | inhibition at 10 µM [4]: 38.1%; inhibition at 10 µM (A498 (renal cancer)): 18.8%; inhibition at 10 µM (SF-295 (CNS cancer)): 31%; inhibition at 10 µM [5]: 21.8%; inhibition at 10 µM (MALME-3M (melanoma)): < 10%; inhibition at 10 µM (OVCAR-8 (ovarian cancer)): 36.7%; inhibition at 10 µM (ACHN (renal cancer)): 32.5%; inhibition at 10 µM (SK-OV-3 (ovarian cancer)): < 10%; inhibition at 10 µM [6]: 33.7%; inhibition at 10 µM (CCRF-CEM (leukemia)): 57.6%; inhibition at 10 µM (UO-31 (renal cancer)): 45.2%; melting point: 279 to 281 °C; inhibition at 10 µM (HCT-15 (colon cancer)): 29%; inhibition at 10 µM [7]: 52.5%; inhibition at 10 µM [8]: 65.7%; inhibition at 10 µM [9]: 28.5%; inhibition at 10 µM (HT29 (colon cancer)): 20.4%
2 | CCc1cccc2cc(C=CC(=O)c3cc(OC)c(OC)c(OC)c3)c(Cl)nc12 [Compound 3c, 3-(2-Chloro-8-ethylquinolin-3-yl)-1-(3,4,5-trimethoxyphenyl)prop-2-en-1-one] | > 100% | 17.1% | 15% | 49.9% | 72.8% | 76.1% | 68.1% | 53.5% | 41.7% | 80.7% | 61.7% | 78.2% | 70.9% | 73.5% | 41.9% | 43.6% | < 10% | < 10% | > 100% | < 10% | inhibition at 10 µM [4]: 52.1%; inhibition at 10 µM (A498 (renal cancer)): < 10%; inhibition at 10 µM (SF-295 (CNS cancer)): 31.3%; inhibition at 10 µM [5]: 18.4%; inhibition at 10 µM (MALME-3M (melanoma)): 14.8%; inhibition at 10 µM (OVCAR-8 (ovarian cancer)): 84%; inhibition at 10 µM (ACHN (renal cancer)): 32%; inhibition at 10 µM (SK-OV-3 (ovarian cancer)): 17.4%; inhibition at 10 µM [6]: 27.4%; inhibition at 10 µM (CCRF-CEM (leukemia)): 87.8%; inhibition at 10 µM (UO-31 (renal cancer)): 45%; melting point: 140 to 142 °C; inhibition at 10 µM (HCT-15 (colon cancer)): 44.5%; inhibition at 10 µM [7]: 39.5%; inhibition at 10 µM [8]: 80.7%; inhibition at 10 µM [9]: 67.6%; inhibition at 10 µM (HT29 (colon cancer)): 77.4%
3 | CCc1cccc2cc(-c3cc(-c4ccc(OC)cc4)[nH]c(=O)c3C#N)c(Cl)nc12 [Compound 4a, 4-(2-Chloro-8-ethylquinolin-3-yl)-6-(4-methoxyphenyl)-2-oxo-1,2-dihydropyridine-3-carbonitrile] | 15.4% | 12.3% | < 10% | 11.9% | 17.1% | 15.3% | 19.9% | < 10% | 11.4% | < 10% | 54.7% | < 10% | 16% | < 10% | < 10% | < 10% | 14.9% | < 10% | < 10% | < 10% | growth inhibition (GI%) (SNB-75 (CNS cancer); SNB-75, single dose 10 μM): 45.69%; inhibition at 10 µM [4]: < 10%; inhibition at 10 µM (A498 (renal cancer)): < 10%; inhibition at 10 µM (SF-295 (CNS cancer)): 16.7%; inhibition at 10 µM [5]: < 10%; inhibition at 10 µM (MALME-3M (melanoma)): < 10%; inhibition at 10 µM (OVCAR-8 (ovarian cancer)): < 10%; inhibition at 10 µM (ACHN (renal cancer)): < 10%; inhibition at 10 µM (SK-OV-3 (ovarian cancer)): < 10%; inhibition at 10 µM [6]: < 10%; inhibition at 10 µM (CCRF-CEM (leukemia)): < 10%; inhibition at 10 µM (UO-31 (renal cancer)): < 10%; melting point: 270 to 272 °C; inhibition at 10 µM (HCT-15 (colon cancer)): < 10%; inhibition at 10 µM [7]: 10%; inhibition at 10 µM [8]: 11.9%; inhibition at 10 µM [9]: < 10%; inhibition at 10 µM (HT29 (colon cancer)): < 10%
4 | CCc1cccc2cc(C=CC(=O)c3ccc(OC)cc3)c(Cl)nc12 [Compound 3a, 3-(2-Chloro-8-ethylquinolin-3-yl)-1-(4-methoxyphenyl)prop-2-en-1-one] | 79.9% | < 10% | < 10% | 16.8% | 44% | 22.5% | < 10% | < 10% | < 10% | < 10% | < 10% | 22.1% | 18% | 45.8% | 17.1% | < 10% | < 10% | < 10% | 18.9% | < 10% | inhibition at 10 µM [4]: < 10%; inhibition at 10 µM (A498 (renal cancer)): < 10%; inhibition at 10 µM (SF-295 (CNS cancer)): < 10%; inhibition at 10 µM [5]: < 10%; inhibition at 10 µM (MALME-3M (melanoma)): < 10%; inhibition at 10 µM (OVCAR-8 (ovarian cancer)): < 10%; inhibition at 10 µM (ACHN (renal cancer)): < 10%; inhibition at 10 µM (SK-OV-3 (ovarian cancer)): < 10%; inhibition at 10 µM [6]: < 10%; inhibition at 10 µM (CCRF-CEM (leukemia)): 26.9%; inhibition at 10 µM (UO-31 (renal cancer)): < 10%; melting point: 138 to 140 °C; inhibition at 10 µM (HCT-15 (colon cancer)): < 10%; inhibition at 10 µM [7]: < 10%; inhibition at 10 µM [8]: 21.1%; inhibition at 10 µM [9]: < 10%; inhibition at 10 µM (HT29 (colon cancer)): < 10%
